The text below walks through data of patent US11679100B2, “Methods of enhancing immunity” (The Regents of the University of California, priority 2018, dated 2023).

Experiment [1] concerns bone marrow derived murine macrophages. The experiment in a line: mRNA/miRNA expression in LA1-treated macrophages. The class given is cell-based. Here is the method:
Murine macrophage differentiation and culture-Bone marrow derived cells (BMDC) were aseptically harvested from 6-8 week-old female mice by flushing leg bones of euthanized mice with phosphate buffered saline (PBS), 0.5% BSA, 2 mM EDTA, incubating in red cell lysis buffer (155 mM NH4Cl, 10 mM NaHCO3 and 0.1 mM EDTA) and centrifuging over Histopaque 1083 to purify the mononuclear cells. Approximately 5×10^7 BMDC were purified by gradient centrifugation from the femurs and tibias of a single mouse. Purified mononuclear cells were cultured in RPMI+20% serum+50 ng/ml M-CSF (PeproTech). Macrophage Polarization-Bone marrow derived macrophages were polarized with either IFNγ (20 ng/ml, Peprotech) plus LPS (100 ng/ml, Sigma) or LPS alone for 24 h or IL-4 (20 ng/ml, Peprotech) for 24-48 h. In some cases, macrophages were incubated with inhibitors of Stat3 ([…]) or cMyc (10058-F4, Selleck). […] Secreted protein was measured in culture supernatants by ELISA assays. […] Sybr green-based qPCR was performed using primers to murine Gapdh (Mm_Gapdh_1_SG), Arg1 (Mm_[…]_SG_QT00134288) Tgfb (Mm_Tgfb_1_SG Qiagen QT00145250), […] (Mm_Il10_1_SG Qiagen QT00106169), Il6 (Mm_Il6_1_SG Qiagen QT00098875), Nos2 (Mm_Nos2_1_SG Qiagen QT00100275), Il12b (Mm_Il12b_1_SG Qiagen QT00153643), Ifng (Mm_Ifng 1_SG Qiagen QT01038821), Il1b (Mm_Il1b_2_SG Qiagen QT01048355), Tnfa (Mm_Tnfa_1_SG Qiagen QT00104006), Vegfa (Mm_Vegfa_1_SG Qiagen QT00160769), Pdgfb (Mm_Pdgfb_1_SG Qiagen QT00266910) and human GAPDH (Hs_GAPDH_1_SG Qiagen QT00079247), ARG1 (Hs_Arginase_1_SG Qiagen QT00068446, IL6 (Hs_Il6_1_SG Qiagen QT00083720), NOS2 (Hs_NOS2_1_SG Qiagen QT00068740), IL12B (Hs_IL12B_1_SG Qiagen QT00000364), and PDGFB (Hs_PDGFB_1_SG Qiagen QT00001260) (Qiagen QuantiTect Primer Assay). mRNA levels were normalized to Gapdh or GAPDH (ΔCt=Ct gene of interest-Ct Gapdh) and reported as relative mRNA expression (ΔΔCt=2^-(ΔCt sample-ΔCt control)) or fold change. […]

Another experiment relates to CL66-luc tumor cell. The experiment in a line: Cytotoxicity assay, luciferase activity. The note with it: 24, 48 and 72 hrs. The class given is cell-based. Here is the method: Cytotoxicity Assay—Taxol and LA1 cytotoxicity towards the CL66-luc tumor cell was determined by measuring luciferase activity in the tumor cells after exposure to LA1 or Taxol. CL66-luc cells (1,000 cells/well) were seeded into 96-well plates overnight at 37° C. prior to treatment with titrating concentrations of LA1 or Taxol dissolved in 1% DMSO in IDMEM for 24, 48 and 72 hrs. Cells treated with vehicle (1% DMSO in IDMEM) were a negative control. Media was aspirated from the cultured cells and 100 μL of a 150 μg/mL working solution of D-Luciferin in pre-warmed DMEM (10% FBS) was added to each well. The plates were incubated at 37° C. for 5 mins prior to reading luminescence using the EnSpire Plate Reader (PerkinElmer).

The test system of another experiment is LLC tumor cells. The experiment in a line: Adoptive transfer of LA1-treated tumor associated macrophages co-implanted with LLC tumor cells. The note with it: tumor-derived macrophages treated with LA1, mixed 1:1 with LLC cells. In kind it is in vivo, mice. The procedure: In vivo Macrophage Adoptive Transfer Experiments—F4/80+ cells were isolated from single cell suspensions of 700-800 mg LLC tumors from donor WT or Itgam−/− mice by FACS sorting. Primary bone marrow derived macrophages from WT or Itgam−/− mice were polarized and harvested into a single cell suspension. Alternatively, WT tumor derived macrophages were incubated with LA1 or saline. Purified macrophages were admixed 1:1 with LLC tumor cells and 5×10^5 total cells were injected subcutaneously into syngeneic host WT or Itgam−/− mice. Tumors were excised and weights were determined 14 days after inoculation.

Experiment [2] deals with LLC cells and macrophages. As to the kind of experiment: In vitro proliferation of LLC cells and macrophages. The class given is cell-based, murine.
For experiment [3], the system named is human MDA-MB-231 mammary xenograft tumors. As to the kind of experiment: Orthotopic MDA-MB-231 mammary xenograft model. The class given is in vivo, mice. The procedure:
Alternatively, 5 million MDA-MB 231 human breast cancer cells were injected orthotopically in the 4th mammary fat pad of 6-week old female nude mice. The tumors were allowed to establish for 35 days (at least 0.5 cm in diameter) and the tumor bearing mice were divided into three treatment groups including, vehicle, LA1 only (i.p.; 2.0 mg/kg; daily) and Taxol only (i.p.; 2.5 mg/kg every other day). Treatment was initiated on day 35 and continued until the end-point at day 58 post-tumor when all the mice were sacrificed and tumor tissue was harvested for histological analysis. Palpable tumors were measured using digital calipers 3 times weekly during the entire experiment to develop tumor growth curves.

Structures are written as SMILES.

Turning to `O=C(O)c1ccc(-c2ccc(/C=C3\SC(=S)N(Cc4ccccc4)C3=O)o2)cc1` [LA1, leukadherin 1], in experiment [1] (IFNγ+LPS stimulated bone marrow derived murine macrophages), the “expression of Il1b, Tnfa, Il12, Nos2 and Ifng mRNAs” value was “increases in expression of Il1b, Tnfa, Il12, Nos2 and Ifng mRNAs”. In experiment [1] (macrophages), the Let7a expression entry is reported as “stimulated Let7a expression”; the “Pdgfb and Il6 expression” value is “inhibited Pdgfb and Il6 expression”. Besides, the “CL66-Luc breast tumor cell growth in vitro” value with CL66-luc tumor cell is on record as “no effect on CL66-Luc breast tumor cell growth in vitro”. The “tumor growth after co-implantation of treated macrophages with LLC cells” value with LLC tumor cells is reported as “completely inhibited tumor growth”. Besides, the “LLC or macrophage viability” value in experiment [2] is recorded as “no direct effect on LLC or macrophage viability”. Further, the “MDA-MB-231 xenograft tumor growth” value in experiment [3] (LA1 2.0 mg/kg i.p. daily) is listed as “suppressed the growth of orthotopic, human MDA-MB-231 mammary xenograft tumors”. The “MDA-MB-231 tumor growth relative to control treated animals” value in experiment [3] (mice which lack T cells) is listed as 50%.
